One test deals with T1, human A1R (Homo sapiens, UniProt P30542).
T1 construct: expressed in transfected cells; host or cells: CHO cells
T1 sequence (P30542 1-326): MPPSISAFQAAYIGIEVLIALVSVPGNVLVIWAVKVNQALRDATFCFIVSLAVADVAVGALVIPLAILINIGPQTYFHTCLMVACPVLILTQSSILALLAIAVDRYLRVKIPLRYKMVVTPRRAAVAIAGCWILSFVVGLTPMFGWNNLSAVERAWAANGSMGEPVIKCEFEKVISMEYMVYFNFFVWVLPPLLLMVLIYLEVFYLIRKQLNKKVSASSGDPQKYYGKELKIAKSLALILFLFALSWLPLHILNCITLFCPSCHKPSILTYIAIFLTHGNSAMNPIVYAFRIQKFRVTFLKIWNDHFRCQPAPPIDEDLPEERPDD
As to the kind of experiment: Displacement of specific [3H]-CCPA binding at human A1R expressed in CHO cells. Particulars: [3H]-CCPA displacement, means ± SE, read-out: hA1R (Ki nM).

The target of a further test is T2, human A2AR (Homo sapiens, UniProt P29274).
T2 construct: expressed in transfected cells; host or cells: CHO cells
As to the kind of experiment: Displacement of specific [3H]-NECA binding at human A2AR expressed in CHO cells. The note with it: [3H]-NECA displacement, means ± SE, read-out: hA2AR (Ki nM).

The target in the next test is T3, hA2BR (Homo sapiens, UniProt P29275).
T3 construct: expressed in transfected cells; host or cells: cells stably expressing the receptor and the GloSensor biosensor (CHO)
T3 sequence (P29275 1-332): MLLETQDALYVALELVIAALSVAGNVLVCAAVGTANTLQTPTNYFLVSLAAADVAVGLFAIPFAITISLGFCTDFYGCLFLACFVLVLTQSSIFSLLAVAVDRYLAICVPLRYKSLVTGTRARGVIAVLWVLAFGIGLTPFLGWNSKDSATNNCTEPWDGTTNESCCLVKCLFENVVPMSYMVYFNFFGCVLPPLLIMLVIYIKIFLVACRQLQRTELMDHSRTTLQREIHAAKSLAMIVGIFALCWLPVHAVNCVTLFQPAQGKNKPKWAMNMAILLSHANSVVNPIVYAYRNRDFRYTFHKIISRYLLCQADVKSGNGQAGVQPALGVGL
As to the kind of experiment: Inhibition of NECA-stimulated adenylyl cyclase activity in CHO cells expressing hA2BR (GloSensor cAMP assay). It counts as cell-based. Particulars: means ± SE. On the procedure:
The activity of compounds understudy was evaluated using the GloSensor™ (Promega Corporation) cAMP assay, which is a new non-radioactive method offering a simple approach to monitor GPCR activity through change in the intracellular cAMP concentration. This assay uses a mutant form of Photinus pyralis luciferase into which a cAMP-binding protein moiety has been inserted. The binding with cAMP triggers a biosensor conformational change that leads to an increase of light output allowing to evaluate the activity of ligands at the receptor under study. Following pre-equilibration with a substrate, cells stably expressing both the receptor of interest and the biosensor can be used to evaluate GPCR function enabling easy kinetic measurements of cAMP accumulation or turnover in living cells.
The antagonist profile of the compounds on A2BR was evaluated by assessing their ability to counteract the agonist NECA-induced increase of cAMP accumulation. After 2 hours of equilibration in reaction medium cells were incubated in 384 well plate (10 minutes at room temperature) with 3 μL of different antagonist concentrations and then treated with 3 μL of a fixed dose of NECA. After another 10 minutes of incubation various luminescence reads were performed at different incubation times.
On the technique in general: cAMP levels reflect the balance of adenylyl cyclase and phosphodiesterase activity.

Another test has as its target T4, human A3R (Homo sapiens, UniProt P0DMS8).
T4 construct: expressed in transfected cells; host or cells: CHO cells
T4 sequence (P0DMS8 1-318): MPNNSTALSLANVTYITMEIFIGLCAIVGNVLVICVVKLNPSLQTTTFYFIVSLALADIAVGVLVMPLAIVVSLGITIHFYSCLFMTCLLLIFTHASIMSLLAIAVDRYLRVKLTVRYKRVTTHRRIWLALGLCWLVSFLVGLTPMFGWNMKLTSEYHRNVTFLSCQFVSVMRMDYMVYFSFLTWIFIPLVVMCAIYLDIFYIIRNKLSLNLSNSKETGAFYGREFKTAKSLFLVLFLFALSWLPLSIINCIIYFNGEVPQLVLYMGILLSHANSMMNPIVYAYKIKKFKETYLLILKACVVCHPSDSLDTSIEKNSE
The test can be described thus: Displacement of specific [3H]-HEMADO binding at human A3R expressed in CHO cells. Particulars: [3H]-HEMADO displacement, means ± SE, read-out: hA3R (Ki nM).

The text below walks through data of US11981673B1, “7-isopropyl 1,2-dimethyl 3-(substituted benzoyl)indolizine-1,2,7 tricarboxylates as adenosine receptor active compounds” (KING FAISAL UNIVERSITY, priority 2023, dated 2024).

Each structure is given as a SMILES string.

T2 sequence (P29274 whole entry): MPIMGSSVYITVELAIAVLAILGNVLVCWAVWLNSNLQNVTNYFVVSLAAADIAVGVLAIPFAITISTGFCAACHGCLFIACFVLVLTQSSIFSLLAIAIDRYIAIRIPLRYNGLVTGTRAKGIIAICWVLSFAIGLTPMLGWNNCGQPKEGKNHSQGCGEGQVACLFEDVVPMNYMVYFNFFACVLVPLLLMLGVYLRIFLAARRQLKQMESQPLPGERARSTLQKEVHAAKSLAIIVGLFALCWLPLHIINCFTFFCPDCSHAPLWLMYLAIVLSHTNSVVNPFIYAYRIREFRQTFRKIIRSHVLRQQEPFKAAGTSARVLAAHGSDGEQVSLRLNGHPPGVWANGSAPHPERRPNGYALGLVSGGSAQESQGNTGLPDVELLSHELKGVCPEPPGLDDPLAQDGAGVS

For the compound `COC(=O)c1c(C(=O)OC)c2cc(C(=O)OC(C)C)ccn2c1C(=O)c1ccccc1` [KNV-ISP1, 7-Isopropyl 1,2-dimethyl 3-benzoylindolizine-1,2,7-tricarboxylate], the Ki at human A1R turned out to be 1640 ± 37 nM; at human A2AR, 2690 ± 631 nM; on human A3R it was 2200 ± 313 nM. At hA2BR, this compound showed an IC50 of over 30000 nM.

With `CCOC(=O)c1cc(C(=O)c2ccc(Cl)cc2)n2ccc(C(=O)OC(C)C)cc12` [KNV-ISP6, 1-Ethyl 7-isopropyl 3-(4-chlorobenzoyl)indolizine-1,7-dicarboxylate], the Ki was over 30000 nM on human A1R, over 30000 nM at human A2AR and 14300 ± 480 nM on human A3R. The IC50 against hA2BR was over 30000 nM.

Turning to `CCOC(=O)c1cc(C(=O)c2ccc(C#N)cc2)n2ccc(C(=O)OC(C)C)cc12` [KNV-ISP10, 1-Ethyl 7-isopropyl 3-(4-cyanobenzoyl)indolizine-1,7-dicarboxylate], the Ki at human A1R was over 30000 nM; on human A2AR it was over 30000 nM; at human A3R, 7670 ± 1730 nM. The compound also registered an IC50 against hA2BR of over 30000 nM.

In the case of `COC(=O)c1c(C(=O)OC)c2cc(C(=O)OC(C)C)ccn2c1C(=O)c1ccc(C)cc1` [KNV-ISP11, 7-Isopropyl 1,2-dimethyl 3-(4-methylbenzoyl)indolizine-1,2,7-tricarboxylate], the Ki at human A1R was 692 ± 41 nM; on human A2AR it was 2921 ± 13 nM; at human A3R, 1600 ± 14 nM. On hA2BR, this compound gave an IC50 of over 30000 nM.

Take `CCOC(=O)c1cc(C(=O)c2ccccc2)n2ccc(C(=O)OC(C)C)cc12` [KNV-ISP2, 1-Ethyl 7-isopropyl 3-benzoylindolizine-1,7-dicarboxylate]: the values for the inhibitory constant (Ki) at human A1R, on human A2AR and at human A3R were 7050 ± 706 nM, over 30000 nM and 3640 ± 837 nM, respectively. On hA2BR, this compound gave an IC50 of over 30000 nM.

Consider `COC(=O)c1c(C(=O)OC)c2cc(C(=O)OC(C)C)ccn2c1C(=O)c1ccc(Cl)cc1` [KNV-ISP5, 7-Isopropyl 1,2-dimethyl 3-(4-chlorobenzoyl)indolizine-1,2,7-tricarboxylate], for which the Ki was 3712 ± 12 nM at human A1R, 7400 ± 833 nM on human A2AR and 7597 ± 29 nM on human A3R. This compound also returned an IC50 on hA2BR of over 30000 nM.

Turning to `COC(=O)c1c(C(=O)OC)c2cc(C(=O)OC(C)C)ccn2c1C(=O)c1ccc(C#N)cc1` [KNV-ISP9, 7-Isopropyl 1,2-dimethyl 3-(4-cyanobenzoyl)indolizine-1,2,7-tricarboxylate], the results for the Ki at human A1R, on human A2AR and at human A3R were over 30000 nM, 10300 ± 1340 nM and 6210 ± 338 nM, respectively. The same compound showed an IC50 against hA2BR of over 30000 nM.

Consider `COC(=O)c1c(C(=O)OC)c2cc(C(=O)OC(C)C)ccn2c1C(=O)c1ccc(F)cc1` [KNV-ISP3, 7-Isopropyl 1,2-dimethyl 3-(4-fluorobenzoyl)indolizine-1,2,7-tricarboxylate], for which the values for the Ki on human A1R, on human A2AR and on human A3R were 2710 ± 388 nM, 3950 ± 695 nM and 1400 ± 348 nM, respectively. The compound also had an IC50 against hA2BR of over 30000 nM.

Regarding `CCOC(=O)c1cc(C(=O)c2ccc(Br)cc2)n2ccc(C(=O)OC(C)C)cc12` [KNV-ISP8, 1-Ethyl 7-isopropyl 3-(4-bromobenzoyl)indolizine-1,7-dicarboxylate], the Ki at human A1R was over 30000 nM; on human A2AR, over 30000 nM; on human A3R, 1680 ± 283 nM. In addition, at hA2BR, the IC50 is over 30000 nM.

In the case of `CCOC(=O)c1cc(C(=O)c2ccc(F)cc2)n2ccc(C(=O)OC(C)C)cc12` [KNV-ISP4, 1-Ethyl 7-isopropyl 3-(4-fluorobenzoyl)indolizine-1,7-dicarboxylate], the figures for the Ki at human A1R, on human A2AR and on human A3R were 6980 ± 577 nM, over 30000 nM and 665 ± 26 nM, respectively. Moreover, at hA2BR, the IC50 is over 30000 nM.

Regarding `COC(=O)c1c(C(=O)OC)c2cc(C(=O)OC(C)C)ccn2c1C(=O)c1ccc(Br)cc1` [KNV-ISP7, 7-Isopropyl 1,2-dimethyl 3-(4-bromobenzoyl)indolizine-1,2,7-tricarboxylate], the Ki at human A1R is 5410 ± 711 nM; at human A2AR, 14900 ± 3750 nM; at human A3R, 1220 ± 339 nM. Further, the IC50 against hA2BR was over 30000 nM.

One may read the Ki as a measure of affinity in units of concentration, obtained from inhibition or displacement. The term IC50 denotes the midpoint of a concentration-inhibition curve. Low values mean greater potency, high ones weaker potency.
